Assay results: patent publication US20250333407A1, “Compounds and Their Use for Treatment of Hemoglobinopathies” (Bristol-Myers Squibb Company, priority 2024, published 2025)

How the values were obtained:
Assay type in all cases: cell-based
[1] = biological target: T1, ZBTB7A (Homo sapiens, UniProt O95365+Q96SW2); test: HUDEP-2 ZBTB7A HiBiT degradation assay; conditions: HiBiT-tagged ZBTB7A degradation in HUDEP-2 cells, 24 hours of treatment; read-out: ZBTB7A EC50
T1 construct: HUDEP-2 cells engineered to express a HiBiT tag in either the WIZ (Widely interspaced zinc finger) or ZBTB7A
T1 sequence (O95365 whole entry): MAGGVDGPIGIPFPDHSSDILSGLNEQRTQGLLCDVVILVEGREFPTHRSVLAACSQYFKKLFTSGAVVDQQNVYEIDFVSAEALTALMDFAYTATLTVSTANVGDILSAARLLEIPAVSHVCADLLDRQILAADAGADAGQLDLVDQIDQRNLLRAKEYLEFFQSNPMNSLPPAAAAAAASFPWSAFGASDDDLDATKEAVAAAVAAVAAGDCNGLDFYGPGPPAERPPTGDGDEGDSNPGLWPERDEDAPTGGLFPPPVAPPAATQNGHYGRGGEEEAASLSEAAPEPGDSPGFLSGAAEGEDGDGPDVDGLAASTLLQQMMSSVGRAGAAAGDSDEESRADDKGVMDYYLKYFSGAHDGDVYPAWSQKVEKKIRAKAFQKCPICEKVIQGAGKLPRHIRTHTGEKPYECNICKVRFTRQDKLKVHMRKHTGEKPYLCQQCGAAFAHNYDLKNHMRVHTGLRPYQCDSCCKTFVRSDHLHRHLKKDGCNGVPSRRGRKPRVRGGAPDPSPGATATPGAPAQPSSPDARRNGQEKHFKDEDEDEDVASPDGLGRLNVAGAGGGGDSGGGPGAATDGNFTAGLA
T1 sequence (Q96SW2 whole entry): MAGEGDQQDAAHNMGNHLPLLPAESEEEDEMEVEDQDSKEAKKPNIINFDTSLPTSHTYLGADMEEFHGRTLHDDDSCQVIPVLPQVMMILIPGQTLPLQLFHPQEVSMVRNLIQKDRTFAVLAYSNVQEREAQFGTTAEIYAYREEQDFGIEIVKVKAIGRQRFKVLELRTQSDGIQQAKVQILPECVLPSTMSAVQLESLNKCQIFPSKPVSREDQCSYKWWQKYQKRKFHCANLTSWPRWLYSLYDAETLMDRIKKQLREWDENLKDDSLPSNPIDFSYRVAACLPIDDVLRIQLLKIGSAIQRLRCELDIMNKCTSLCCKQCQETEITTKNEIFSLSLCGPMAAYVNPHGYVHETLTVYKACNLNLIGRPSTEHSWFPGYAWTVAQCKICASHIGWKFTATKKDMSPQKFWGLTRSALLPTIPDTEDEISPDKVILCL
T1 sequence (Q16531 whole entry partner): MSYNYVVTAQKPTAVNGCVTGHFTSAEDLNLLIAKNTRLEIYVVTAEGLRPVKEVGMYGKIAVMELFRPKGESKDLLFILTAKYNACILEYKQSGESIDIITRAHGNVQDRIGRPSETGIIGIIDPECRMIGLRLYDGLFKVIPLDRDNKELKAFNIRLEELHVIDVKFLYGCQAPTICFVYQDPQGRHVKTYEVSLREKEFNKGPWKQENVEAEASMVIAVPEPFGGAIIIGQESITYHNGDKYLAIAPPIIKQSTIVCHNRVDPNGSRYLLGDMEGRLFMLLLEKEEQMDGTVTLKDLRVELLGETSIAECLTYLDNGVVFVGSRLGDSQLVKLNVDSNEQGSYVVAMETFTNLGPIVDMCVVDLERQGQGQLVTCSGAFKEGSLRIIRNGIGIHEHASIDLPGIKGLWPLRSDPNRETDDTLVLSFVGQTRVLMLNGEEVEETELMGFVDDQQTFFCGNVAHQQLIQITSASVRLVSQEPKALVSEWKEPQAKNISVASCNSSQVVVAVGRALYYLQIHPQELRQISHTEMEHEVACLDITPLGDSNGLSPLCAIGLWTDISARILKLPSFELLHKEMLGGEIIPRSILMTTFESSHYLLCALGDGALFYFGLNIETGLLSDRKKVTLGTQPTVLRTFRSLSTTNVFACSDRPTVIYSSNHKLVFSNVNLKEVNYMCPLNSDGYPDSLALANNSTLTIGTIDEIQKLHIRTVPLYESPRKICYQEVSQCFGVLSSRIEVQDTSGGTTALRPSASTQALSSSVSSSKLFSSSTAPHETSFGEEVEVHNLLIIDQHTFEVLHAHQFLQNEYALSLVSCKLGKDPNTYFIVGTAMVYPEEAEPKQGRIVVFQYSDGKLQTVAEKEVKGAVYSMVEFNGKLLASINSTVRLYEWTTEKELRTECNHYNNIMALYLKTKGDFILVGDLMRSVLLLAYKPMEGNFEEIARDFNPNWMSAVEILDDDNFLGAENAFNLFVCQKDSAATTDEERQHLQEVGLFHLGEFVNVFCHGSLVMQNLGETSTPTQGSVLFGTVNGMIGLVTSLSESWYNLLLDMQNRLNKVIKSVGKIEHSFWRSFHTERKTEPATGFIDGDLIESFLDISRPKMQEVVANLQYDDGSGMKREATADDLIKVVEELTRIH
Method in brief: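 HiBiT-tagged HUDEP-2 cells were pre-cultured 48 h in IMDM with EPO, SCF, doxycycline and 5% human plasma, then exposed to compounds at 1.0×10^6 cells/ml for 24 h at 37 °C. Nano-Glo HiBiT lytic luminescence, normalised to DMSO over 10 concentrations, gave EC50 and Y-min.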

[2] = biological target: T2, WIZ (Homo sapiens, UniProt O95785+Q96SW2); test: HUDEP-2 WIZ HiBiT degradation assay; conditions: HiBiT-tagged WIZ degradation in HUDEP-2 cells, 24 hours of treatment; read-out: WIZ EC50
T2 construct: HUDEP-2 cells engineered to express a HiBiT tag in either the WIZ (Widely interspaced zinc finger) or ZBTB7A
T2 sequence (O95785 whole entry): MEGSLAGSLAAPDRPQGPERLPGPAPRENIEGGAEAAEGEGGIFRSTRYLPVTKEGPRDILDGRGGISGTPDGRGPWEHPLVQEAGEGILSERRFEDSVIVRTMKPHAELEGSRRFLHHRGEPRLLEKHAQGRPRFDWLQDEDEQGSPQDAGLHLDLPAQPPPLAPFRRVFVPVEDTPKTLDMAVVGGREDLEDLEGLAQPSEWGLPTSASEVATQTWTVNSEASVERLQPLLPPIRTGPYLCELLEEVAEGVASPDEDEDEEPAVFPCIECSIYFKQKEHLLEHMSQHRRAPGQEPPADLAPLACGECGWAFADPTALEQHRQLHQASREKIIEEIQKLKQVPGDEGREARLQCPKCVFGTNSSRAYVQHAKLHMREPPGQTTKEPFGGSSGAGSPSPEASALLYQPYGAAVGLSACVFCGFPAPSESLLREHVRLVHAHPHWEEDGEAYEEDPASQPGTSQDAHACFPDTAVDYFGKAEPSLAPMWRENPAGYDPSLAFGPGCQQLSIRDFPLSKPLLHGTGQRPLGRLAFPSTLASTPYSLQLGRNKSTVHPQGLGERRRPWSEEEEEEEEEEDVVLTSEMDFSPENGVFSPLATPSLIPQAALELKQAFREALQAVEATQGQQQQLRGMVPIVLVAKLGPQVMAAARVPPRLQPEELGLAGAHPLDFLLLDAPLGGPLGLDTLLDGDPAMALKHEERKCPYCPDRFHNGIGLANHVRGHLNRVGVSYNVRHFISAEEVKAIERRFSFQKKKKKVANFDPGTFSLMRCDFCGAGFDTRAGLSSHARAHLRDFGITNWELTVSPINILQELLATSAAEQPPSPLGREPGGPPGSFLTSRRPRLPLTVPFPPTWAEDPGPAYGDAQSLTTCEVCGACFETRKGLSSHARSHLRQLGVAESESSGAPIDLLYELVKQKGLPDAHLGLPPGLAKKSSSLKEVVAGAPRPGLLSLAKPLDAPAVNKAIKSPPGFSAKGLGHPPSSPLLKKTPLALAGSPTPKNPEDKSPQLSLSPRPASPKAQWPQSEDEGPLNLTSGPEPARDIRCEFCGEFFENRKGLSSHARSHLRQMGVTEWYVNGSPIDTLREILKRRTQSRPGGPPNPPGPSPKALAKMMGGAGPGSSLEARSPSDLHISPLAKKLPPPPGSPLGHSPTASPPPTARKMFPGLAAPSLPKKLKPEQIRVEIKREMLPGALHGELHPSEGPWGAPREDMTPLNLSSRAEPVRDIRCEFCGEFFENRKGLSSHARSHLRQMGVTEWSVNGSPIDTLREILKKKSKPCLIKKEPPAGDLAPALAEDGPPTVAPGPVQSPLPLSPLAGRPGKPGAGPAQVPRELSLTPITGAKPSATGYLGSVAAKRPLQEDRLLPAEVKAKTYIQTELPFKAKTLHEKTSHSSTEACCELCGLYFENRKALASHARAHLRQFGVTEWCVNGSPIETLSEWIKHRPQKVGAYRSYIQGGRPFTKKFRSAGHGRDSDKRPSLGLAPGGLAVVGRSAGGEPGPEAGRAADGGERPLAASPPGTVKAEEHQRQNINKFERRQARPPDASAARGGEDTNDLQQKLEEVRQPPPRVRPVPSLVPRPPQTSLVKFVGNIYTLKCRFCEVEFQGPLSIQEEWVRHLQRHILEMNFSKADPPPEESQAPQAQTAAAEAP
T2 sequence (Q96SW2 whole entry): as the sequence (Q96SW2 whole entry) above
T2 sequence (Q16531 whole entry partner): as the sequence (Q16531 whole entry partner) above
Method in brief: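 HiBiT-tagged HUDEP-2 cells at 1.0×10^6 cells/ml in SFEM II with SCF, EPO, dexamethasone and doxycycline, treated 24 h at 37 °C with a 10-point series ([…]). Luminescence after HiBiT lytic detection, normalized to DMSO; EC50 and Y-min from fitted curves.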

[3] = system: HbF; test: HbF HiBiT induction assay in HUDEP-2 cells; conditions: HUDEP-2 cells with HiBiT tag in HBG1/2, 72 hours of treatment; area under the dose response curve, higher AUC = greater HbF induction
Method in brief: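 HUDEP-2 cells carrying a HiBiT tag on HBG1/2 were exposed to compounds for 72 h at 37° C, 5% CO2, in IMDM with EPO, hSCF, DOX, transferrin, insulin, heparin and 5% human plasma. HiBiT luminescence was read after lytic detection; HbF induction is expressed as dose-response AUC, alongside EC50 and Ymax.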

Row | DC50 [1] | DC50 [2] | SMILES | HBF AUC [3]
1 | 0.014 µM | 0.008 µM | CCO[C@H]1CC[C@H](c2cc3c(cc2Nc2cccc4c2C(=O)N([C@@H]2CCC(=O)NC2=O)C4=O)N(C)C(=O)[C@@H](C)O3)CC1 [Compound 54, 2-((R)-2,6-dioxopiperidin-3-yl)-4-(((R)-7-((1r,4R)-4-ethoxycyclohexyl)-2,4-dimethyl-3-oxo-3,4-dihydro-2H-benzo[b][1,4]oxazin-6-yl)amino)isoindoline-1,3-dione] | ++ (++ = 100 ≤ AUC < 150)
2 | 0.009 µM | 0.006 µM | CCO[C@H]1CC[C@H](c2cc3c(cc2Nc2cccc4c2C(=O)N([C@@H]2CCC(=O)NC2=O)C4=O)N(C)C(=O)[C@H](C)O3)CC1 [Compound 55, 2-((R)-2,6-dioxopiperidin-3-yl)-4-(((S)-7-((1r,4S)-4-ethoxycyclohexyl)-2,4-dimethyl-3-oxo-3,4-dihydro-2H-benzo[b][1,4]oxazin-6-yl)amino)isoindoline-1,3-dione] | ++ (++ = 100 ≤ AUC < 150)
3 | 0.043 µM | 0.02 µM | CCN1C(=O)COc2cc(-c3cc(C)nc(C)c3)c(Nc3cccc4c3C(=O)N(C3CCC(=O)NC3=O)C4=O)cc21 (stereo not drawn) [Compound 56, 4-((7-(2,6-dimethylpyridin-4-yl)-4-ethyl-3-oxo-3,4-dihydro-2H-benzo[b][1,4]oxazin-6-yl)amino)-2-(2,6-dioxopiperidin-3-yl)isoindoline-1,3-dione] | ++ (++ = 100 ≤ AUC < 150)
4 | 0.054 µM | 0.018 µM | Cc1cc(-c2cc3c(cc2Nc2cccc4c2C(=O)N(C2CCC(=O)NC2=O)C4=O)N(C)C(=O)CO3)cc(C2CC2)n1 (stereo not drawn) [Compound 57, 4-((7-(2-cyclopropyl-6-methylpyridin-4-yl)-4-methyl-3-oxo-3,4-dihydro-2H-benzo[b][1,4]oxazin-6-yl)amino)-2-(2,6-dioxopiperidin-3-yl)isoindoline-1,3-dione] | +++ (+++ = AUC ≥ 150)
5 | 0.01 µM | 0.009 µM | Cc1cc(-c2cc3c(cc2Nc2cccc4c2C(=O)N([C@@H]2CCC(=O)NC2=O)C4=O)N(C)C(=O)CO3)c(F)cn1 [Compound 58, (R)-2-(2,6-dioxopiperidin-3-yl)-4-((7-(5-fluoro-2-methylpyridin-4-yl)-4-methyl-3-oxo-3,4-dihydro-2H-benzo[b][1,4]oxazin-6-yl)amino)isoindoline-1,3-dione] | ++ (++ = 100 ≤ AUC < 150)
6 | 0.01 µM | 0.008 µM | Cc1cc(-c2cc3c(cc2Nc2cccc4c2C(=O)N([C@@H]2CCC(=O)NC2=O)C4=O)N(C)C(=O)CO3)ccn1 [Compound 59, (R)-2-(2,6-dioxopiperidin-3-yl)-4-((4-methyl-7-(2-methylpyridin-4-yl)-3-oxo-3,4-dihydro-2H-benzo[b][1,4]oxazin-6-yl)amino)isoindoline-1,3-dione] | +++ (+++ = AUC ≥ 150)
7 | 0.011 µM | 0.009 µM | CNc1cc(-c2cc3c(cc2Nc2cccc4c2C(=O)N(C2CCC(=O)NC2=O)C4=O)N(C)C(=O)CO3)c(F)cn1 (stereo not drawn) [Compound 60, 2-(2,6-dioxopiperidin-3-yl)-4-((7-(5-fluoro-2-(methylamino)pyridin-4-yl)-4-methyl-3-oxo-3,4-dihydro-2H-benzo[b][1,4]oxazin-6-yl)amino)isoindoline-1,3-dione] | +++ (+++ = AUC ≥ 150)
8 | 0.011 µM | 0.007 µM | Cc1cc(-c2cc3c(cc2Nc2cccc4c2C(=O)N([C@H]2CCC(=O)NC2=O)C4=O)N(C)C(=O)CO3)c(F)cn1 [Compound 61, (S)-2-(2,6-dioxopiperidin-3-yl)-4-((7-(5-fluoro-2-methylpyridin-4-yl)-4-methyl-3-oxo-3,4-dihydro-2H-benzo[b][1,4]oxazin-6-yl)amino)isoindoline-1,3-dione] | ++ (++ = 100 ≤ AUC < 150)
9 | 0.019 µM | 0.017 µM | Cc1cc(-c2cc3c(cc2Nc2cccc4c2C(=O)N(C2CCC(=O)NC2=O)C4=O)N(C)C(=O)OC3)cc(C)n1 (stereo not drawn) [Compound 62, 4-((6-(2,6-dimethylpyridin-4-yl)-1-methyl-2-oxo-1,4-dihydro-2H-benzo[d][1,3]oxazin-7-yl)amino)-2-(2,6-dioxopiperidin-3-yl)isoindoline-1,3-dione] | ++ (++ = 100 ≤ AUC < 150)
10 | 0.014 µM | 0.016 µM | CC(=O)N1CCCC(c2cc3c(cc2Nc2cccc4c2C(=O)N([C@H]2CCC(=O)NC2=O)C4=O)N(C)C(=O)CO3)C1 (stereo partly drawn) [Compound 63, 4-((7-(1-acetylpiperidin-3-yl)-4-methyl-3-oxo-3,4-dihydro-2H-benzo[b][1,4]oxazin-6-yl)amino)-2-((S)-2,6-dioxopiperidin-3-yl)isoindoline-1,3-dione] | ++ (++ = 100 ≤ AUC < 150)
11 | 0.053 µM | 0.012 µM | CCOc1nccc(-c2cc3c(cc2Nc2cccc4c2C(=O)N(C2CCC(=O)NC2=O)C4=O)N(C)C(=O)CO3)c1C (stereo not drawn) [Compound 64, 2-(2,6-dioxopiperidin-3-yl)-4-((7-(2-ethoxy-3-methylpyridin-4-yl)-4-methyl-3-oxo-3,4-dihydro-2H-benzo[b][1,4]oxazin-6-yl)amino)isoindoline-1,3-dione] | ++ (++ = 100 ≤ AUC < 150)
12 | 0.096 µM | 0.041 µM | COc1nccc(-c2cc3oc(=O)n(C)c3cc2Nc2cccc3c2C(=O)N(C2CCC(=O)NC2=O)C3=O)c1F (stereo not drawn) [Compound 65, 2-(2,6-dioxopiperidin-3-yl)-4-((6-(3-fluoro-2-methoxypyridin-4-yl)-3-methyl-2-oxo-2,3-dihydrobenzo[d]oxazol-5-yl)amino)isoindoline-1,3-dione] | + (+ = 15 ≤ AUC < 100)
13 | 0.188 µM | 0.015 µM | CNc1cc(-c2cc3c(cc2Nc2cccc4c2C(=O)N(C2CCC(=O)NC2=O)C4=O)N(C)C(=O)CO3)cc(C)n1 (stereo not drawn) [Compound 66, 2-(2,6-dioxopiperidin-3-yl)-4-((4-methyl-7-(2-methyl-6-(methylamino)pyridin-4-yl)-3-oxo-3,4-dihydro-2H-benzo[b][1,4]oxazin-6-yl)amino)isoindoline-1,3-dione] | ++ (++ = 100 ≤ AUC < 150)
14 | 0.025 µM | 0.017 µM | Cc1cc(-c2c(Nc3cccc4c3C(=O)N([C@H]3CCC(=O)NC3=O)C4=O)cc3c(c2F)OCC(=O)N3C)c(F)cn1 [Compound 67, 2-((S)-2,6-dioxopiperidin-3-yl)-4-((8-fluoro-7-(5-fluoro-2-methylpyridin-4-yl)-4-methyl-3-oxo-3,4-dihydro-2H-benzo[b][1,4]oxazin-6-yl)amino)isoindoline-1,3-dione] | ++ (++ = 100 ≤ AUC < 150)
15 | 0.006 µM | 0.003 µM | CN1C(=O)COc2cc([C@H]3CC[C@H](C#N)CC3)c(Nc3cccc4c3C(=O)N([C@H]3CCC(=O)NC3=O)C4=O)cc21 [Compound 68, (1S,4r)-4-(6-((2-((S)-2,6-dioxopiperidin-3-yl)-1,3-dioxoisoindolin-4-yl)amino)-4-methyl-3-oxo-3,4-dihydro-2H-benzo[b][1,4]oxazin-7-yl)cyclohexane-1-carbonitrile] | +++ (+++ = AUC ≥ 150)
16 | 0.054 µM | 0.02 µM | Cc1cncc(-c2c(Nc3cccc4c3C(=O)N([C@H]3CCC(=O)NC3=O)C4=O)cc3c(c2F)OCC(=O)N3C)c1 [Compound 69, (S)-2-(2,6-dioxopiperidin-3-yl)-4-((8-fluoro-4-methyl-7-(5-methylpyridin-3-yl)-3-oxo-3,4-dihydro-2H-benzo[b][1,4]oxazin-6-yl)amino)isoindoline-1,3-dione] | + (+ = 15 ≤ AUC < 100)
